Experimental data taken from patent US20040040097A1, “Coloring composition for keratin fibres comprising a system limiting the transcutaneous passage of an oxidation dye” (L'OREAL, priority 2002, published 2004).

Tested on: rebuilt skin (for example Epiderm, Episkin or Skinethic)
Experiment: Penetration rate of 5,6-dihydroxyindole through rebuilt skin in static diffusion cells, VIS spectrophotometry of oxidation products
Assay type: in vitro ADME
Conditions: 5 mM final concentration, 16 hour coating at an infinite dose
Experimental: The 5,6-dihydroxyindole mixture with the system limiting the transcutaneous passage has been prepared fresh by adding an system equivalent volume (=1 mM MnCl2 in 1 M NaHCO3; pH=10) to an aqueous solution of 10 mM 5,6-dihydroxyindole. Then, it has been coated on rebuilt skin (for example Epiderm® from Mattek, Inc., Episkin® from Episkin SNC or Skinethic® from Skinethic Laboratories) placed in diffusion cells in a static diffusion mode at a dose of 250 mg·cm^2 for 16 hours. The analysis of the penetration rates of 5,6-dihydroxyindole through the skin has been conducted through VIS spectrophotometry through the oxidation products thereof. The 5,6-dihydroxyindole range has been prepared as follows. A plurality of dilutions from 0 to 0.5 mM 5,6-dihydroxindole in receiving liquid has been left for 16 hours at 32° C. for forming oxidation products in the form of a pigment. Such pigments absorb visible light (VIS) (“scattering” effect) depending on their concentration, which is directly related to the initial 5,6-dihydroxyindole concentration. Thus, the 5,6-dihydroxyindol range has been obtained through VIS absorption of such pigments formed after 5,6-dihydroxyindole oxydation. A 1:1 mixture between 10 mM 5,6-dihydroxyindole and distilled water has been used as a control. […]

Oc1cc2cc[nH]c2cc1O [5,6-dihydroxyindole]
penetration rate of the 5,6-dihydroxyindole (with no system (control mixture, 1:1 with distilled water)): approximately 3 % of the dose coated
penetration rate of the 5,6-dihydroxyindole (with the system (1 mM MnCl2 in 1 M NaHCO3, pH 10, equivalent volume)): lower than 0.5%
